Article PMC10674446, “Synthesis and Structural Characterization of Novel Dimers of Dipyridothiazine as Promising Antiproliferative Agents” (Molecules, 2023)
Read-outs that look alike come from different tables or passages of the source.

Legend:
[1] = tested on: MCF7 and SW480 cancer cells; test: MTT cell viability assay, both cancer cell lines; type: cell-based, human
Method: (§1) MCF7, SW480 and normal L6 muscle cells were bought from the ATCC company, USA [34]. MCF7 and SW480 adenocarcinoma cell lines were cultured, respectively, using Dulbecco’s Modified Eagle Medium (DMEM with 4.5 g/L glucose; HIMEDIA, Mumbai, India) supplemented with 100 U/mL penicillin, 100 µg/mL of streptomycin and 10% fetal bovine serum (FBS; Cat No. FBSEU500; Tico Europe, Amstelveen, The Netherlands) under standard conditions until the desired confluency was reached. Once the desired cell confluency of 70–80% was observed, the cells were sub-cultured through trypsinization, and the cell count was calculated prior to seeding in the 96-well microplate. Similarly, L6 rat myoblasts were cultured accordingly as normal cell lines to compare against MCF7 and SW480 cell lines during the MTT cell viability assay.
(§2) Cells were seeded in a 96-well microplate at a density of 1 × 10^4 cells per well and were allowed to adhere to the wells overnight. Subsequently, the cells were treated with varying concentrations of 12 compounds (1a,b,c–4a,b,c) along with doxorubicin as the positive control. The cells were exposed to the tested substances at concentrations ranging from 50, 25, 10, 5 and 1 μM. The treatment was conducted over three periods of 24 h, 48 h and 72 h, respectively. After the treatment period, thiazolyl blue tetrazolium bromide (MTT) solution was added to each well at a concentration of 0.5 mg/mL and incubated for 3 h in a 37 °C incubator supplemented with 5% CO2. Lastly, the spent MTT medium was removed and DMSO was added to the wells, where the purple formazan crystals were solubilized, and the intensity of the purple hue was spectrophotometrically measured at 570 nm.
(§3) All values were represented as means ± standard deviations (n = 3). The data were statistically analyzed using GraphPad Prism 10.1.0, where the IC50 values of each compound treated on different cell lines at different time points were obtained by extrapolating the logarithmic dose–response curve. The IC50 values were further subjected to one-way ANOVA analysis along with the post hoc test to determine the statistical significance between the treatment groups and the negative control (untreated cells).

MCF7 breast cancer = test: MTT cell viability assay, MCF7; type: cell-based, human; settings: for Selectivity Index (SI), MCF-7: SI = IC50 L6 / IC50 MCF-7; for IC50: Homo sapiens, MCF7, mean ± SD, n = 3, read-out: Anticancer Activity IC50, MCF-7
Method: as §1
(§4) Cells were seeded in a 96-well microplate at a density of 1 × 10^4 cells per well and were allowed to adhere to the wells overnight. […] The cells were exposed to the tested substances at concentrations ranging from 50, 25, 10, 5 and 1 μM. The treatment was conducted over three periods of 24 h, 48 h and 72 h, respectively. […] Lastly, the spent MTT medium was removed and DMSO was added to the wells, where the purple formazan crystals were solubilized, and the intensity of the purple hue was spectrophotometrically measured at 570 nm.
(§5) All values were represented as means ± standard deviations (n = 3). […] The IC50 values were further subjected to one-way ANOVA analysis along with the post hoc test to determine the statistical significance between the treatment groups and the negative control (untreated cells).

normal L6 rat myoblasts = test: MTT cell viability assay, normal L6 cells; type: cell-based; settings: Rattus norvegicus, Myoblast, mean ± SD, n = 3, read-out: Anticancer Activity IC50, L6
Method: as §1, §2, §3

SW480 colon cancer = test: MTT cell viability assay, SW480; type: cell-based, human; settings: for Selectivity Index (SI), SW480: SI = IC50 L6 / IC50 SW480; for IC50: Homo sapiens, SW480, mean ± SD, n = 3, read-out: Anticancer Activity IC50, SW480
Method: as §1, §4, §5

[2] = 72 h treatment period, NA = IC50 beyond the tested concentration range (1-50 µM)

SMILES	cytotoxicity towards MCF7 compared with SW480 (in words) ([1]; breast cancer cell line MCF7 versus colon cancer cell line SW480)	melting point	Selectivity Index (SI), MCF-7 (MCF7 breast cancer; 24 h)	Selectivity Index (SI), MCF-7 (MCF7 breast cancer; 48 h)	Selectivity Index (SI), MCF-7 (MCF7 breast cancer; 72 h)	IC50 (MCF7 breast cancer; 24 h treatment period)	IC50 (MCF7 breast cancer; 48 h treatment period)	IC50 (MCF7 breast cancer; [2])	IC50 (normal L6 rat myoblasts; 24 h treatment period)	IC50 (normal L6 rat myoblasts; 48 h treatment period)	IC50 (normal L6 rat myoblasts; 72 h treatment period)	Selectivity Index (SI), SW480 (SW480 colon cancer; 24 h)	Selectivity Index (SI), SW480 (SW480 colon cancer; 48 h)	Selectivity Index (SI), SW480 (SW480 colon cancer; 72 h)	IC50 (SW480 colon cancer; 24 h treatment period)	IC50 (SW480 colon cancer; 48 h treatment period)	IC50 (SW480 colon cancer; 72 h treatment period)	toxicity towards both MCF7 and SW480 cancer cells (in words) ([1]; 24, 48 and 72 h of incubation)	IC50 ([1]; Homo sapiens, MCF7 and SW480, span over 24, 48 and 72 h, read-out: IC50 range towards both cancer cell lines)
c1cc(CN2c3cnccc3Sc3cccnc32)nc(CN2c3cnccc3Sc3cccnc32)c1 [2c, 2,6-bis((dipyrido[3,2-b:3′,4′-e][1,4]thiazin-10-yl)methyl)pyridine]	higher cytotoxicity	266 to 268 °C	0.76	1.91	1.80	23.2 ± 0.33 µM	10.02 ± 0.05 µM	9.96 ± 0.03 µM	17.6 ± 0.85 µM	19.23 ± 0.13 µM	18 ± 0.18 µM	1.02	0.91	1.12	17.2 ± 1.46 µM	21.1 ± 0.99 µM	15.9 ± 1.48 µM	–	–
c1ccc(CN2c3ccncc3Sc3ccncc32)c(CN2c3ccncc3Sc3ccncc32)c1 [3a, 1,2-bis((dipyrido[3,4-b:3′,4′-e][1,4]thiazin-10-yl)methyl)benzene]	–	280 to 282 °C	6.46	6.85	3.51	4.77 ± 0.84 µM	3.17 ± 0.13 µM	6.1 ± 1.33 µM	30.8 ± 0.47 µM	21.7 ± 0.48 µM	21.41 ± 0.17 µM	5.02	5.22	4.69	6.12 ± 0.21 µM	4.16 ± 0.08 µM	4.56 ± 1.18 µM	significantly toxic	3.17 to 6.12 µM
